The source of these data is US11197863B2, “Inhibitors of polo-like kinase 4 (PLK4) for treating pediatric embryonal tumors” (ANN AND ROBERT H. LURIE CHILDREN'S HOSPITAL OF CHICAGO, priority 2017, dated 2021).

The series in a line: Brain to plasma ratio (B:P). Type of series: in vivo. Conditions: male, CD-1, mouse, brain and plasma, po, 7.5 mg/kg, fasted male CD-1 mice, 4 hours post-dose, average. How it is done:
Raw brain-to-plasma ratios (B:P) were determined by dividing the brain concentration in ng/g by the plasma concentration in ng/g (with plasma, density assumed to be of 1 g/mL). The average B:P ratio was determined to be approximately 0.08±0.3 (FIG. 12). No further CFI-400945 pharmacokinetic studies were done as part of this study.
Male CD-1 mice weighing between 20 and 40 grams were fitted with jugular vein cannulas as appropriate and fasted overnight until 4 hours post-dose. Double route of administration (oral and IV) were tested, with a single dose concentration of 7.5 mg/kg. Plasma and brain were sampled at 6 time-points, starting at 30 minutes (n=3 animals/time-point). Brain was extracted at the same plasma sampling time-point from each animal. Both plasma and brain samples were deproteinated. Brain samples were weighted, homogenized and CFI-400945 was extracted. […] The dosing solution was normalized in a matched matrix (mouse plasm) and analyzed in triplicate in the same analytical batch as the incurred samples (Absorption Systems—Exton, Pa.).

Take `COc1ccc2c(c1)[C@]1(C[C@H]1c1ccc3c(/C=C/c4ccc(CN5C[C@@H](C)O[C@@H](C)C5)cc4)n[nH]c3c1)C(=O)N2` [CFI-400945]: the Kp at 4 h was approximately 0.08.
